{
  "source": "paper PMC9669016",
  "about": "“First-in-human phase Ia study of the PI3Kα inhibitor CYH33 in patients with solid tumors” (Nature Communications, 2022)",
  "origin": "cited, not measured here",
  "key": {"[1]": {"tested_on": "patients with PIK3CA-mutated HR+/HER2– breast cancer / PIK3CA-altered solid tumors", "settings": "cited from earlier work"}, "[2]": {"tested_on": "KYSE410, KYSE510, EC104, EC063, EC074 xenograft models", "parameters": "method as in Investigator's Brochure (IB) 12", "settings": "12.5 mg/kg; 9 values for 5 models, model column not assignable; ref Investigator's Brochure (IB) 12; listed as BYL-719; cited from earlier work"}},
  "note": "“And” between values parts separate entries of the source, which are not always exact repeats. Equal entries are not always repeated.",
  "data": [
    {"smiles": "Cc1nc(NC(=O)N2CCC[C@H]2C(N)=O)sc1-c1ccnc(C(C)(C)C(F)(F)F)c1", "note": "[alpelisib]", "values": [
      {"measurement": "frequency of diarrhea", "setting": "[1]", "result": 57.7, "unit": "%"},
      {"measurement": "incidence of rash", "setting": "[1]", "result": 64.0, "unit": "%"},
      {"measurement": "improvement in median overall survival", "setting": "[1]; phase III SOLAR-1, alpelisib plus fulvestrant vs fulvestrant plus placebo, advanced PIK3CA-mutated HR+/HER2– breast cancer", "result": 7.9, "unit": "month"},
      {"measurement": "incidence of rash with prophylactic anti-rash medication", "setting": "[1]; within the first 4–8 weeks of treatment", "result": 24.6, "unit": "%"},
      {"measurement": "T/C% (tumor/control ratio)", "setting": "[2]", "result": "29.09% and 47.62%"}
    ]}
  ]
}
